From a melting point compilation (Tetko et al.; mined from patent text by program, amines drawn as free bases though some values may be those of a salt)

SMILES | melting point [°C]
CC(CCCN(C)C)C1CC(=O)C2=C3CCC4CC(O)CCC4(C)C3CCC21C (centres undefined) | 160 to 162
CC(=O)Nc1cc(C(C)(C)C)[nH]n1 | 194 to 195
CC(C)=NN=C1NCC(=O)N1 | 182 to 187
COc1cc2c3c(cccc3c1Br)C(=O)N(O)C2=O | 250 to 253
CS(=O)CCNC(N)=O (centres undefined) | 88
COc1c(C(O)CNC(C)(C)Cc2c(C)c(C)cc(C)c2C)ccc(O)c1O (centres undefined) | 165 to 168
c1ccc(-c2cncc(CN3CCN(c4ccccc4)CC3)c2)cc1 | 83 to 85
CCOC(=O)CN1CCN(C(C)(C)C=CC(=O)Nc2cc3c(Nc4ccc(F)c(Cl)c4)ncnc3cc2OCC2CC2)CC1 | 165 to 167
O=C1C(Cl)=C(C2CCC(c3ccc(Cl)cc3)CC2)C(=O)c2ccccc21 (centres undefined) | 172 to 175
CCN(CC)C(=S)c1cccc(F)c1[Si](C)(C)C | 71 to 73
CCC1Cc2cc(OCC(=O)O)c(Cl)c(Cl)c2C1O (centres undefined) | 121 to 122
CC(C)N1Cc2c(F)cccc2N(CCN2CC=C(c3c[nH]c4cc(F)ccc34)CC2)S1(=O)=O | 107 to 109
CCOC(=O)N1C=CN(c2ccccc2)C1C#N (centres undefined) | 109 to 111
CC(=O)OCCCNc1nnc(NCCCOC(C)=O)c2c1C(=O)c1ccccc1C2=O | 142 to 145
Cc1nnc(-c2ccc3occ(-c4ccc(S(=O)C(F)(F)F)cc4)c3c2)o1 (centres undefined) | 183 to 184
CCCCCCc1cccc(NC2=NCCS2)c1 | 79 to 80
CC(C)(C)C1CCCC=C1c1ccc(C(=O)O)cc1 (centres undefined) | 197
Cc1ccc2nc(C)c(C3=NNC(=O)CO3)n2c1 | 313
COc1cccc(C(=O)N2CCN(CC3(C)Cc4c(C)c(N)c(C)c(C)c4O3)CC2)c1 (centres undefined) | 95 to 98
COc1ccccc1-c1cccc2c1OC(COS(=O)(=O)c1ccc(C)cc1)C2 (centres undefined) | 100 to 103
Cc1cc(F)ccc1C(=O)c1ccc(F)cc1C | 50 to 52
CC(C)C1(C)NC(c2nc(-c3ccsc3)ccc2C(=O)O)=NC1=O (centres undefined) | 253 to 257
CCOC(=O)Cc1nc2cc(Cl)ccc2n1CC | 44 to 45

SMILES | melting point [°C]
O=C(CC(O)(c1cc(Cl)cc(Cl)c1)C(F)(F)F)c1ccc(-n2ccnc2)cc1 (centres undefined) | 161 to 162
c1ccc(Sc2ccc(Sc3ccccc3)s2)cc1 | 47 to 48
CCOC(Cc1cnc2ccc(OCc3ccc([N+](=O)[O-])cc3)cc2c1)C(=O)O (centres undefined) | 169 to 174
CC(C)C[C@H](NC(=O)Nc1cccc2ccccc12)C(=O)NC1CCOC1O (some centres undefined) | 177 to 178
Cc1ccc(C)n1-c1cc(F)c(C2(O)CCSCC2)c(F)c1 | 125 to 126
Cn1nc(C#Cc2ccccc2)ccc1=O | 118 to 120
COc1cc(C(F)(F)F)oc(=O)c1 | 61
CCCCc1oc2ccccc2c1/C=N/OCCCOc1ccc(C(=O)O)c(O)c1 | 140 to 142
BrC12CCCC(C1)C1CCC2C1 (centres undefined) | 57.5 to 58.5
Cc1oc(-c2ccccc2)nc1COc1ccc(CON=C(CCCCC(=O)O)c2ccccc2)cc1 | 101 to 102
Cc1ccc(S(=O)(=O)Nc2nc(-c3ccc(OCc4ccccc4)c(OCc4ccccc4)c3)cs2)cc1 | 158 to 161
Clc1ncccc1-c1ccccn1 | 50
Cc1cc(NCc2ccc(-c3ccccc3-c3nnn(C(c4ccccc4)(c4ccccc4)c4ccccc4)n3)cc2)c(I)c(C)n1 | 209 to 211
Cc1ccc(C(=O)Nc2c(NC(=O)CN(C)CC3OCCO3)ccc3c2C(=O)c2ccccc2C3=O)cc1 | 156 to 157
CC(C)c1nc(C(C)C)c(CN2CCC(N3CCCCC3)CC2)c(-c2ccc(F)cc2)c1CO | 143 to 145
CN1CC(CCN2CCN(c3ccccn3)CC2)OC1=O (centres undefined) | 108 to 109
COC(OC)c1cccc(-c2ccc(C(=O)O)cc2)c1 | 130 to 131
O=C1c2cccc(NC(=S)Nc3cc[nH]n3)c2C2CCCCN12 (centres undefined) | 208
O=c1[nH]c(-c2ccccc2)c(-c2ccccc2)o1 | 158 to 159
CN(N)c1nc(=S)[nH]c2[nH]cnc12 | 245
Cc1ccc(C(=O)c2cnn3c(-c4cccnc4)ccnc23)cc1 | 203 to 204
COc1ccc(C(O)c2ccc(C(=O)N(C3CCCC3)C3CCCC3)cc2)cc1OC (centres undefined) | 137 to 138
COc1ccc(CCBr)cc1OC | 72 to 73

SMILES | melting point [°C]
Cc1ccccc1C(=O)NC(NC(=NC#N)Nc1cccnc1)C(Cl)(Cl)Cl (centres undefined) | 126 to 128
C#CC[C@]12C=CC(=O)C=C1CC[C@H]1[C@@H]3CCC(=O)[C@@]3(C)CC[C@@H]12 | 200 to 201
CCOC(=O)CN1c2ccccc2N(C)C(=O)c2cccnc21 | 99 to 100
N#Cc1ccc(C=Cc2cc(=O)c3cc(Br)ccc3o2)cc1 | 275 to 276
CCOC(=O)N1CCOC(CNC(=O)c2cc(Cl)c(N)cc2OC)C1 (centres undefined) | 140 to 151
O=C(Nc1cc(Cl)ccc1O)c1cc(Cl)cc(Cl)c1 | 251 to 252
CCN(CC)CC1CCCCN1CC(=O)N1c2cc(Cl)ccc2C(=O)Nc2cccnc21 (centres undefined) | 168 to 169
CC(C)(C)OC(=O)Nc1cc(Cl)c(C#Cc2ccccc2)cc1[N+](=O)[O-] | 166 to 167
CNc1cccc(-c2nc(=O)c3ccccc3s2)n1 | 207 to 208
Cc1csc(C(=O)OC(C)C)c1S(N)(=O)=O | 76
CC1(C)C(Br)C(=O)C1CC(Cl)(Cl)Cl (centres undefined) | 56
CN(C(=O)OC(C)(C)C)[C@H]1CC[C@H](/C=C/CCl)CC1 | 42.5 to 43.9
C=Cn1ccnc1C=O | 48 to 51
CCOC(=O)C(C#N)=C(NCc1ccccc1)NCC1CN(Cc2ccc(F)cc2)CCO1 (centres undefined) | 107 to 108
CSc1ccc(-c2coc3ccc(-c4nnc(N)o4)cc23)cc1Cl | 232 to 233
O=S(=O)(c1cccc(-c2cccc(-c3nc(-c4ccc(C(F)(F)F)cc4)cc(C(F)(F)F)n3)c2)c1)N(CCO)CCO | 112
Cc1c(NC(=O)c2ccc(-c3ccc(F)cc3)cc2)ccc2cc(CN3CCCCCC3)cnc12 | 166 to 168
OC1C2CCN(CC2)C1C#Cc1ccc(-c2cccnc2)cc1 (centres undefined) | 189 to 190
C=C(C)C(=O)OCCOC(Cl)C(Cl)(Cl)Cl (centres undefined) | 44 to 45
O=C(O)c1nc(Cl)sc1Cl | 191
COc1cc2c(cc1OC)CCNCC2 | 86 to 89

Now from value to compound:

melting point [°C] | SMILES
90 to 91 | CCCCCCC(C(=O)O)c1cccc(Sc2ccccc2C)c1O (centres undefined)
121 to 123 | COC(=O)C(CCSC)NC(=O)c1ccc(NC(=O)C2CC(O)CN2C(=O)OC(C)(C)C)cc1-c1ccccc1 (centres undefined)
261 to 263 | CC(C)(CNC(=O)Cc1cnc[nH]1)c1ccc(C(=O)Nc2cn3cc(C(F)(F)F)ccc3n2)cc1
199 to 201 | COc1cc(OCc2ccccn2)ccc1/C=C/c1cc(/C=C/c2cc3ccccc3o2)n[nH]1
149 to 151 | CCC(CC)c1ccc(C(F)(F)F)c2nc(Oc3c(C)cc(Cl)cc3Cl)n(C)c12
177 to 179 | Nc1cccc(C2CN3CCSC3=N2)c1 (centres undefined)
138 to 140 | N#Cc1ccc(OCCCCCOc2cccc(-c3cc4ccc(C#N)cc4o3)c2)cc1
247 to 249 | C=C(C)C(=O)Nc1ccc(NC(=O)Nc2ccc(C#N)cc2)c(O)c1
114 to 115 | CCCCN(CCCCCCCCSc1nc(-c2ccccc2)c(-c2ccccc2)[nH]1)C(=O)Nc1ccc(F)cc1F
160 | Cc1ccc(Oc2c(-c3ccc(S(C)(=O)=O)cc3)oc(C(F)F)cc2=O)cc1
225 to 227 | NC(=O)C1(c2ccccc2)OC(=O)c2ccccc21 (centres undefined)
185 to 188 | CCCc1ccnc(C(=O)O)c1N
168 to 170 | COc1cc([N+](=O)[O-])c(CCCCC(=O)O)c([N+](=O)[O-])c1O
225 to 226 | Cc1nc2ccc(NS(=O)(=O)c3cccc(Cl)c3C)cc2nc1C
171 | Cc1cc2c(cc1C#N)C(c1ccccn1)=CC(C)(C)CO2
186 to 188 | Nc1ccc2ccc(O)cc2c1
63 to 65 | CN(Cc1ccc(OC(C)(C)C(=O)O)cc1)c1ccc(Cl)cc1
217 to 218 | CNC(=S)C1=C(O)C2(CCOCC2)Oc2ccc([N+](=O)[O-])cc21
157 to 158 | CN1C(=O)OC(C)(C)c2cc(-c3cc(F)cc(Br)c3)ccc21

melting point [°C] | SMILES
144 to 145 | COc1cc(Nc2nccc(-c3ccc(N4CCCNCC4)nc3)n2)cc(OC)c1OC
138 to 139 | COC=NC(C#N)=C(N)C#N
185 to 186 | O=C(O)Cc1cnn(-c2ccccc2)c1-c1ccc(Cl)cc1
68.4 | COc1ccccc1Nc1ccc2c(c1)OCc1cc(N)ccc1C2=O
42 to 44 | CCOC(=O)Cc1cnc(C(C)(C)C)nc1Cl
110 to 111 | Cc1oc(-c2ccccc2)nc1COc1ccc(COc2ncccc2CC#N)cn1
178 | O=C(CCCc1ccccc1)N[C@@H](Cc1ccccc1)C(=O)O
335 to 336 | O=CN1CCN(c2cc3c(cc2F)c(=O)c(C(=O)O)c2sccn23)CC1
> 230 | COc1ccc(Cn2c(=O)n(C3OC(CO)C(O)C3O)c3nc(N)[nH]c(=O)c32)cc1 (centres undefined)
282 to 284 | Cn1cc(C2=C(c3cn(C)c4ccc([N+](=O)[O-])cc34)C(=O)NC2=O)c2ccccc21
150 | COc1ccc(C(=O)c2ccccc2)cc1C(=O)O
51 to 53 | C=Cc1ccc(C(=O)OC(C)(C)C)c(C#N)c1
118 to 122 | COc1cc(CC(C#N)(C=O)C(OC)OC)cc(OC)c1OC (centres undefined)
147 to 148 | COc1ccc(-c2noc3c2CCC(C(=O)O)CC3)cc1 (centres undefined)
127 to 129 | CC(C)C(=O)N(C(=O)N(C)C)c1snc(C(C)C)c1C#N
164 to 166 | O=C(Nc1ccccc1-n1cccn1)c1cccc2c1C(=O)c1ccccc1-2
142 | O=C1C2=C(SCCN2)C2CSCCN12 (centres undefined)
141 to 142 | O=C(NC12CC3CC(CC(C3)C1)C2)c1ncon1
